Experimental data from ChEMBL document CHEMBL1138594, “Identification of an N-oxide pyridine GW4064 analog as a potent FXR agonist” (Bioorg Med Chem Lett, 2009).

Experiments:
[1] = biological target: T1, Bile acid receptor (Homo sapiens, UniProt Q96RI1); assay: Displacement of radioligand from human FXR by scintillation proximity assay
T1 sequence (Q96RI1 whole entry): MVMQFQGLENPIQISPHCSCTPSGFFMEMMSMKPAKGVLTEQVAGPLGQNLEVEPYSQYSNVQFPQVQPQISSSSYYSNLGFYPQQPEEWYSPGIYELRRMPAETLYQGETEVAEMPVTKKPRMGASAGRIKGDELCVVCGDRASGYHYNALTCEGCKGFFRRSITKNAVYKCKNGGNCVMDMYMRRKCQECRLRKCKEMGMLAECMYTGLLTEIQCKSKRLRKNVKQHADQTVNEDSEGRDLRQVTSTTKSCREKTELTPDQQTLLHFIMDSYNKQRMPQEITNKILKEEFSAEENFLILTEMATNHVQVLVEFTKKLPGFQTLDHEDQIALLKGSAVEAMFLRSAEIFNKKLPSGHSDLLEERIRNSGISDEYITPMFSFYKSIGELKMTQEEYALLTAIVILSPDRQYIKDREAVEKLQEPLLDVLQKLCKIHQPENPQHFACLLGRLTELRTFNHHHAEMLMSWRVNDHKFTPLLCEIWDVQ

[2] = biological target: T2, Bile acid receptor (Homo sapiens) (UniProt Q96RI1); assay: Agonist activity at chimeric FXR assessed as receptor transactivation by luciferase transcriptional reporter gene assay relative to GW-4064; assay type: functional; design: concentration or dose not given beside the values
T2 sequence (whole entry): T1 sequence (Q96RI1 whole entry)

[3] = biological target: T3, Bile acid receptor (Mus musculus, UniProt Q60641); assay: Agonist activity at mouse chimeric FXR assessed as receptor transactivation by luciferase transcriptional reporter gene assay; assay type: functional
T3 sequence (Q60641 whole entry): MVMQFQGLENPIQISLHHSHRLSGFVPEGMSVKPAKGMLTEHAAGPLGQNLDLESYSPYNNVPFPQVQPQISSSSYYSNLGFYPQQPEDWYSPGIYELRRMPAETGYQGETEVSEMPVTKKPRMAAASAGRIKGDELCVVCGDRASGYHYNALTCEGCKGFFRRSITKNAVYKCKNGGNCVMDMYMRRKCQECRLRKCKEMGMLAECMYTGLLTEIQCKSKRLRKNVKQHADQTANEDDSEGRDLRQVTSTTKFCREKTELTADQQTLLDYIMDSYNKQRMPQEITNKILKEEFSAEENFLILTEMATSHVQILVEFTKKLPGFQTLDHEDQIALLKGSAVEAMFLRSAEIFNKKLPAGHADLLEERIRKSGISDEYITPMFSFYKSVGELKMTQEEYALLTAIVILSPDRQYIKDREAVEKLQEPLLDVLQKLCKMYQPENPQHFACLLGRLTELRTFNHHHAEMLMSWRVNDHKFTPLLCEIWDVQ

[4] = biological target: T4, Bile acid receptor (Mus musculus) (UniProt Q60641); assay: Agonist activity at mouse chimeric FXR assessed as receptor transactivation by luciferase transcriptional reporter gene assay relative to GW-4064; assay type: functional; design: concentration or dose not given beside the values
T4 sequence (whole entry): T3 sequence (Q60641 whole entry)

[5] = biological target: T1, Bile acid receptor
[6] = Permeability by PAMPA method; assay type: ADME; details: read-out: permeability

Row | IC50 [1] [µM] | Activity [2] [%] | EC50 [3] [µM] | Activity [4] [%] | EC50 [5] [µM] | Papp [6] [×10⁻⁶ cm/s] | Structure (SMILES)
1 | 1.72 | 12 | 6 | 17 | 7 |  | Cc1cc(OCc2c(-c3ccn(C)c(=O)c3Cl)noc2C(C)C)ccc1-c1ccc2c(C(=O)O)cn(C)c2c1
2 |  | 100 | 2 |  |  |  | CC(C)c1onc(-c2c(Cl)cccc2Cl)c1COc1ccc(/C=C/c2cccc(C(=O)O)c2)c(Cl)c1
3 | 0.235 | 27 | 4 | 39 | 4 |  | Cc1cc(OCc2c(-c3c(Cl)ccc(=O)n3C)noc2C(C)C)ccc1-c1ccc2c(C(=O)O)cn(C)c2c1
4 |  | 38 | 3 | 71 | 0.9 | 0.19 | Cc1cc(OCc2c(-c3c(Cl)cncc3Cl)noc2C(C)C)ccc1-c1ccc2c(C(=O)O)cn(C)c2c1
5 | 0.045 | 53.7 | 0.2 | 88.5 | 0.102 | 587 | Cc1cc(OCc2c(-c3c(Cl)c[n+]([O-])cc3Cl)noc2C(C)C)ccc1-c1ccc2c(C(=O)O)cn(C)c2c1
6 | 0.69 | 59.4 | 11 | 48 | 9 | 0.09 | CC(C)c1onc(-c2c(Cl)cncc2Cl)c1COc1ccc(/C=C/c2cccc(C(=O)O)c2)c(Cl)c1
7 | 0.25 | 54.3 | 10 | 19.8 | 10 |  | COc1ccccc1-c1noc(C(C)C)c1COc1ccc(/C=C/c2cccc(C(=O)O)c2)c(Cl)c1
8 | 2.75 | 9 | 11 | 15 | 12 |  | Cc1cc(OCc2c(-c3c(Cl)cn(C)c(=O)c3Cl)noc2C(C)C)ccc1-c1ccc2c(C(=O)O)cn(C)c2c1
9 | 0.17 | 0 | > 10 | 0 | > 10 |  | CC(C)c1onc(-c2ccc(S(C)(=O)=O)cc2Cl)c1COc1ccc(/C=C/c2cccc(C(=O)O)c2)c(Cl)c1
10 | 0.31 | 23 | 2 | 12 | 2 | 0.7 | COc1ccc(Cl)c(-c2noc(C(C)C)c2COc2ccc(-c3ccc4c(C(=O)O)cn(C)c4c3)c(C)c2)n1
11 | 1.1 | 58.5 | 7 | 63.3 | 5 |  | Cc1cc(OCc2c(-c3cc[nH]c(=O)c3Cl)noc2C(C)C)ccc1-c1ccc2c(C(=O)O)cn(C)c2c1
12 | 4.13 | 0 | 18 | 8 |  |  | Cc1cc(OCc2c(-c3[nH]c(=O)ccc3Cl)noc2C(C)C)ccc1-c1ccc2c(C(=O)O)cn(C)c2c1
